Experimental data published in patent US5482948A, “Pyridyl derivatives and pharmaceutical compositions comprising these compounds” (Dr. Karl Thomae GmbH, priority 1991, dated 1996).

Key:
thrombocyte aggregation = experiment: Antithrombotic activity: collagen-induced aggregation in platelet-rich plasma (Born and Cross); type: cell-based; details: Homo sapiens, 10 min; platelet-rich plasma from healthy volunteers; incubated 10 minutes at 37° C.; 50% change in optical density; read-out: Inhibition of collagen-induced aggregation EC50
Experimental: The thrombocyte aggregation is measured using the method of Born and Cross (J. Physiol. 170, 397 (1964)) in platelet-rich plasma taken from healthy volunteers. To inhibit coagulation, the blood is mixed with 3.14% strength sodium citrate in a ratio by volume of 1:10.
Collagen-induced Aggregation
The pattern of decrease in the optical density of the platelet suspension is photometrically measured and recorded after the addition of the aggregation-triggering substance. The rate of aggregation is concluded from the angle of inclination of the density curve. The point on the curve where there is greatest light transmittance is used to calculate the "optical density".
The quantity of collagen used is as little as possible but sufficient to produce an irreversible reaction curve. Standard commercial collagen produced by Hormonchemie of Munich is used. Before the addition of the collagen the plasma is incubated for 10 minutes with the substance at 37° C.
From the measurements obtained an EC50 is determined by plotting a graph, and indicates a 50% change in the "optical density" in terms of the inhibition of aggregation.

Thromboxane = target: T1, Thromboxane (Homo sapiens, UniProt P21731); experiment: Thromboxane-antagonistic activity (displacement of 3H-labelled ligand on human platelets); type: binding; details: human platelet suspension, 60 minutes at ambient temperature
T1 construct: endogenous in cells; host or cells: human platelets (platelet-rich plasma passed through Sepharose 2B)
T1 sequence (P21731 1-343): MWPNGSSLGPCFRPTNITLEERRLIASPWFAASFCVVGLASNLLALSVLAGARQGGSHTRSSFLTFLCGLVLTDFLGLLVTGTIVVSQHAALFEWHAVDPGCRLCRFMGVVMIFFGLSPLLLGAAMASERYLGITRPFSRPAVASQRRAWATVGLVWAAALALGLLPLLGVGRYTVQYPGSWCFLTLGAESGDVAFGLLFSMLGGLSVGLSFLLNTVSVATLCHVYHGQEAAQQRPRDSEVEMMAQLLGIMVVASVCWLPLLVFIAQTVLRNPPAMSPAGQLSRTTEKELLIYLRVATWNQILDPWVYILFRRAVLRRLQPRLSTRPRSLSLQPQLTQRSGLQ
Experimental: Thromboxane-antagonistic Activity
Venous human blood is anti-coagulated with 13 mM Na3 citrate and centrifuged for 10 minutes at 170×g. The supernatant platelet-rich plasma is passed through a Sepharose 2B column in order to remove the plasma proteins. Aliquots of the platelet suspension obtained are incubated with the test substance, the ligand (^3 H-labelled) and a marker (^14 C-labelled) for 60 minutes at ambient temperature and then centrifuged for 20 seconds at 10,000×g. The supernatant is removed and the pellet is dissolved in NaOH. The ^3 H activity in the supernatant corresponds to the free ligand, ^14 C gives the concentration of the marker. ^3 H in the pellet corresponds to the bound ligand whilst ^14 C is used to correct for the ligand in the extracellular space. After the process has been repeated, the displacement curve is determined from the binding values for different concentrations of the test substance and the IC50 is determined.

thromboxane synthetase = target: T2, thromboxane synthetase (Homo sapiens, UniProt P24557); experiment: Inhibitory effect on thromboxane synthetase (TXB2 formation in human platelet suspension); type: cell-based; details: 10 minutes at ambient temperature, then 14C-labelled arachidonic acid 10 minutes, read-out: Inhibition of thromboxane synthetase IC50
T2 construct: endogenous in cells; host or cells: human platelets (platelet-rich plasma passed through Sepharose 2B)
T2 sequence (P24557 1-533): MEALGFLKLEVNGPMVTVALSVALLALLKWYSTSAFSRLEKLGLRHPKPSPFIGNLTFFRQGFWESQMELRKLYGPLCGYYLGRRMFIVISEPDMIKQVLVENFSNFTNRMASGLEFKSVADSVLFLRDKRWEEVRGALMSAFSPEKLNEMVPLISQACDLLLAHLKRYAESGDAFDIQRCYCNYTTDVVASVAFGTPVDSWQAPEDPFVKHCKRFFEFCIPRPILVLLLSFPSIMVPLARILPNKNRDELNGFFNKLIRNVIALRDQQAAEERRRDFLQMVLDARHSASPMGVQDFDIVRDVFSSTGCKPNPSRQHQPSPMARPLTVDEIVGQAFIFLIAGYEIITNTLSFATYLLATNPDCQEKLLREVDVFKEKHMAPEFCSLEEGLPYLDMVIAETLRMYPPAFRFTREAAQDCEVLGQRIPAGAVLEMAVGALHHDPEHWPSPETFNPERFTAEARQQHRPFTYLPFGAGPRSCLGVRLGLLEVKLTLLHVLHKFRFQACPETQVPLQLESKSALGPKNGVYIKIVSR
Experimental: Determining the Inhibitory Effect on Thromboxane Synthetase
Venous human blood is anti-coagulated with 13 mM Na3 citrate and centrifuged for 10 minutes at 170×g. The supernatant platelet-rich plasma is passed through a Sepharose 2B column in order to remove the plasma proteins. Aliquots of the platelet suspension obtained are incubated with the test substance or with a solvent as control for 10 minutes at ambient temperature and after the addition of ^14 C-labelled arachidonic acid incubation is continued for a further 10 minutes. After this has been stopped with 50 μl of citric acid, extraction is carried out 3 times with 500 μl of ethyl acetate and the combined extracts are distilled off with nitrogen. The residue is taken up in ethyl acetate, placed on TLC film and separated with chloro-form:methanol:glacial acetic acid:water (90:8:1:0.8, v/v/v/v). The dried TLC films are placed on X-ray film for 3 days, the autoradiograms were developed and the active zones were marked on the film using the autoradiograms. After cutting out, the activity is measured in a scintillation counter and the inhibition of the formation of TXB2 is calculated. The IC50 is determined by linear interpolation.

Row | SMILES | IC50 (Thromboxane) | IC50 (thromboxane synthetase) | EC50 (thrombocyte aggregation)
1 | N#CN=C(Nc1cccc(/C(=C\CCCC(=O)O)c2cccnc2)c1)NC1CCCC1 [C, 5E-6-(3-(2-cyano-3-cyclopentyl-guanidino)phenyl)-6-(3-pyridyl)hex-5-enoicacid] | 30 nM | 3 nM | 530 nM
2 | CC(C)NC(=NC#N)Nc1cccc(/C(=C\CCCC(=O)O)c2cccnc2)c1 [D, 5E-6-(3-(2-cyano-3-isopropyl-guanidino)phenyl)-6-(3-pyridyl)hex-5-enoic acid] | 18 nM | 24 nM | 
3 | CC(C)CCNC(=NC#N)Nc1cccc(/C(=C\CCCC(=O)O)c2cccnc2)c1 [Example I, 5E-6-(3-(2-cyano-3-(3-methylbutyl)guanidino)phenyl)-6-(3-pyridyl)hex-5-enoic acid] | 27 nM | 3 nM | 690 nM
4 | CC(C)(C)NC(=NS(=O)(=O)c1ccccc1)Nc1cccc(/C(=C\CCCC(=O)O)c2cccnc2)c1 [Example V, 5E-6-(3-(3-tert.butyl-2-phenylsulphonyl-guanidino)phenyl)-6-(3-pyridyl)hex-5-enoic acid] | 55 nM | 4 nM | 3000 nM
5 | CC(C)(C)CNC(=NC#N)Nc1cccc(/C(=C\CCCC(=O)O)c2cccnc2)c1 [G, 5E-6-(3-(2-cyano-3-neopentyl-guanidino)phenyl)-6-(3-pyridyl)hex-5-enoic acid] | 22 nM | 14 nM | 260 nM
6 | CCCCCNC(=NC#N)Nc1cccc(/C(=C\CCCC(=O)O)c2cccnc2)c1 [H, 5E-6-(3-(2-cyano-3-pentyl-guanidino)phenyl)-6-(3-pyridyl)hex-5-enoic acid] | 25 nM | 5 nM | 640 nM
7 | N#CC(C#N)=C(Nc1cccc(/C(=C\CCCC(=O)O)c2cccnc2)c1)NC1CC1 [O, 5E-6-(3-(2,2-dicyano-1-cyclopropylaminoethyleneamino)phenyl)-6-(3-pyridyl)hex-5-enoic acid] | 62 nM | 65 nM | 40 nM
8 | CCCNC(Nc1cccc(/C(=C\CCCC(=O)O)c2cccnc2)c1)=C(C#N)C#N [P, 5E-6-(3-(2,2-dicyano-1-propylamino-ethyleneamino)phenyl)-6-(3-pyridyl)hex-5-enoic acid] | 37 nM | 40 nM | 50 nM
9 | CC(C)(C)NC(Nc1cccc(/C(=C\CCCC(=O)O)c2cccnc2)c1)=C(C#N)C#N [Q, 5E-6-(3-(2,2-dicyano-1-tert.butylaminoethyleneamino)phenyl)-6-(3-pyridyl)hex-5-enoic acid] | 50 nM | 50 nM | 120 nM
10 | N#CN=C(Nc1ccc(/C(=C\CCCC(=O)O)c2cccnc2)cc1)NC1CCCCC1 [R, 5E-6-(4-(2-cyano-3-cyclohexyl-guanidino)phenyl)-6-(3-pyridyl)hex-5-enoic acid] | 1300 nM | 180 nM | 31000 nM
11 | CC(C)(C)NC(=NC#N)Nc1cccc(C(CCCCC(=O)O)c2cccnc2)c1 (stereo not drawn) [S, 6-(3-(2-cyano-3-tert.butyl-guanidino)phenyl)-6-(3-pyridyl)hexanoic acid] | 120 nM | 37 nM | 1100 nM
12 | CC(C)(C)CNC(=C[N+](=O)[O-])Nc1cccc(/C(=C\CCCC(=O)O)c2cccnc2)c1 [T, 5E-6-(3-(1-neopentylamino-2-nitro-ethyleneamino)phenyl)-6-(3-pyridyl)hex-5-enoic acid] | 280 nM | 290 nM | 9500 nM
13 | CC(C)(C)NC(=NC#N)NCCc1ccc(C(=CCCCC(=O)O)c2cccnc2)cc1 [U, E/Z-6-(4-(2-(2-cyano-3-tert.butyl-guanidino)ethyl)phenyl)-6-(3-pyridyl)hex-5-enoic acid] | 50 nM | 7 nM | 1200 nM

Molecules with a lower IC50 (Thromboxane), results first:

Row | IC50 (Thromboxane) | IC50 (thromboxane synthetase) | SMILES | EC50 (thrombocyte aggregation)
14 | 17 nM | 4 nM | N#CN=C(Nc1cccc(/C(=C\CCCC(=O)O)c2cccnc2)c1)N[C@@H]1C[C@H]2CC[C@@H]1C2 (relative stereo) [E, 5E-6-(3-(2-cyano-3-(exo-norborn-2-yl)guanidino)phenyl)-6-(3-pyridyl)hex-5-enoic acid] | 750 nM
15 | 17 nM | 380 nM | N#CN=C(Nc1cccc(/C(=C\CCCC(=O)O)c2cccnc2)c1)NC1CC1 [A, 5E-6-(3-(2-cyano-3-cyclopropyl-guanidino)phenyl)-6-(3-pyridyl)hex-5-enoicacid] | 
16 | 11 nM |  | CC(C)(C)NC(=NC#N)Nc1cccc(/C(=C\CCCC(=O)O)c2cccnc2)c1 [B, 5E-6-(3-(2-cyano-3-tert.butyl-guanidino)phenyl)-6-(3-pyridyl)hex-5-enoic acid] | 500 nM
17 | 7 nM | 30 nM | CC(C)CNC(=NC#N)Nc1cccc(/C(=C\CCCC(=O)O)c2cccnc2)c1 [F, 5E-6-(3-(2-cyano-3-(2-methylpropyl)guanidino)phenyl)-6-(3-pyridyl)hex-5-enoic acid] | 350 nM
18 | 2 nM | 30 nM | CC(C)CNC(Nc1cccc(/C(=C\CCCC(=O)O)c2cccnc2)c1)=C(C#N)C#N [J, 5E-6-(3-(2,2-dicyano-1-(2-methylpropylamino)ethyleneamino)phenyl)-6-(3-pyridyl)hex-5-enoic acid] | 120 nM
19 | 2 nM | 45 nM | CC(C)NC(Nc1cccc(/C(=C\CCCC(=O)O)c2cccnc2)c1)=C(C#N)C#N [K, 5E-6-(3-(2,2-dicyano-1-isopropylaminoethyleneamino)phenyl)-6-(3-pyridyl)hex-5-enoic acid] | 20 nM
20 | 15 nM | 31 nM | CC(C)CCNC(Nc1cccc(/C(=C\CCCC(=O)O)c2cccnc2)c1)=C(C#N)C#N [L, 5E-6-(3-(2,2-dicyano-1-(3-methylbutylamino)ethyleneamino)phenyl)-6-(3-pyridyl)hex-5-enoic acid] | 1200 nM
21 | 1 nM | 33 nM | N#CC(C#N)=C(Nc1cccc(/C(=C\CCCC(=O)O)c2cccnc2)c1)NC1CCCC1 [M, 5E-6-(3-(2,2-dicyano-1-cyclopentylaminoethyleneamino)-phenyl)-6-(3-pyridyl)hex-5-enoic acid] | 50 nM
22 | 3 nM | 44 nM | CC(C)(C)CNC(Nc1cccc(/C(=C\CCCC(=O)O)c2cccnc2)c1)=C(C#N)C#N [N, 5E-6-(3-(2,2-dicyano-1-neopentylaminoethyleneamino)phenyl)-6-(3-pyridyl)hex-5-enoic acid] | 620 nM
